# Assay results taken from US12606540B2, “Triazolone compound” (MEDSHINE DISCOVERY INC., priority 2020, dated 2026).
# Legend:
# [1] = tested on: influenza virus A/Weiss/43 (H1N1); assay: Influenza virus cytopathic effect (CPE) experiment in MDCK cells; format: cell-based; settings: unidentified influenza virus, H1N1, 120 h, 5 days incubation, CCK8
# CDK9/cyclin T1(h) = biological target: T1, CDK9/cyclin T1(h) (Homo sapiens, UniProt P50750); assay: Eurofins KinaseProfiler kinase selectivity; format: biochemical; settings: compound at 1 μM; ATP 45 μM; read-out: Residual enzyme activity
# T1 construct: purchased Eurofins (KinaseProfiler platform)
# Procedure: (§1) This experiment aims to study the activity and selectivity of the compounds towards kinases selected from the Eurofins KinaseProfiler™ platform. The compounds against each selected kinase were tested using the KinaseProfiler™ experimental procedure of Eurofins standard, which follows the relevant standard operating procedures. Protein kinases (except ATM(h) and DNA-PK(h)) were tested by […], while lipid kinases, ATM(h), ATR/ATRIP(h) and DNA-PK(h) were tested by HRTF®.
# (§2) Compound powders were prepared into 10 mM mother liquor through 100% DMSO solution and then diluted to 50× liquid.
# (§3) An appropriate amount of 50× storage solution of the test compound was taken into the test wells, and then the kinase and substrate were added and mixed well. A certain concentration of ATP was added to start the reaction.
# (§4) Data were processed using custom in-house analysis software.
# (§5) The kinase off-target study in vitro of compound 5 of the present disclosure was carried out to evaluate the inhibitory activity against 15 common kinases at a concentration of 1 μM of the drug, and the results are as shown in Table 6.
# Abl(h) = biological target: T2, Abl(h) (Homo sapiens, UniProt P00519); assay: Eurofins KinaseProfiler kinase selectivity; format: biochemical; settings: compound at 1 μM; ATP 45 μM; read-out: Residual enzyme activity
# T2 construct: purchased Eurofins (KinaseProfiler platform)
# T2 sequence (P00519 whole entry): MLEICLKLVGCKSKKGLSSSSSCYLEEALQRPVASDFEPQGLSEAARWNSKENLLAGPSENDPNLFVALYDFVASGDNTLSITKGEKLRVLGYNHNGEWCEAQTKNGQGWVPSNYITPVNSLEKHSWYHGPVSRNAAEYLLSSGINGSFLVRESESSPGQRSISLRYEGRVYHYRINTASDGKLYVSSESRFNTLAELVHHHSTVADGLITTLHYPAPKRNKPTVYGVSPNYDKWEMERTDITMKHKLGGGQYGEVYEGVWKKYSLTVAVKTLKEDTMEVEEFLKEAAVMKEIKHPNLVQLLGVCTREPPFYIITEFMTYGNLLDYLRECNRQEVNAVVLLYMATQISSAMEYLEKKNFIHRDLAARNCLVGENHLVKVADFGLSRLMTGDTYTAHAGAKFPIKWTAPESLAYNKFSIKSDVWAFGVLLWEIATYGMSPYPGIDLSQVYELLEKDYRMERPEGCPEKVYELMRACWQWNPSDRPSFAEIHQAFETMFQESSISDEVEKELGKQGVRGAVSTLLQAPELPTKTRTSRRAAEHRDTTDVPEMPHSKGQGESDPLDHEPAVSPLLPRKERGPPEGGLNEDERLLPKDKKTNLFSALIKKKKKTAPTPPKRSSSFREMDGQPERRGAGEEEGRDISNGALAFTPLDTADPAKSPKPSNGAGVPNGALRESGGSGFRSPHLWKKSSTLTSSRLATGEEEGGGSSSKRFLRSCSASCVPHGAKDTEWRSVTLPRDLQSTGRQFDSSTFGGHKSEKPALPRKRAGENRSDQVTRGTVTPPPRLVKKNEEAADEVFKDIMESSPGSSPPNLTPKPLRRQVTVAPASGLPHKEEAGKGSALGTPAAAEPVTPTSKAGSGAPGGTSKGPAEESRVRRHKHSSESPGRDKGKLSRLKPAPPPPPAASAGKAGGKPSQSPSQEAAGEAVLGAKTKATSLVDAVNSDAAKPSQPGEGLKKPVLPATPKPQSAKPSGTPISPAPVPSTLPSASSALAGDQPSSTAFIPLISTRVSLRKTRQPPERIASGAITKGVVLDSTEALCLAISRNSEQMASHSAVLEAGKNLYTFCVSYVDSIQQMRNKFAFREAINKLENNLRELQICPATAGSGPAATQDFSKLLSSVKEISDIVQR
# Procedure: as §1, §2, §3, §4, §5
# CDK1/cyclinB(h) = biological target: T3, CDK1/cyclinB(h) (Homo sapiens, UniProt P06493); assay: Eurofins KinaseProfiler kinase selectivity; format: biochemical; settings: compound at 1 μM; ATP 45 μM; read-out: Residual enzyme activity
# T3 construct: purchased Eurofins (KinaseProfiler platform)
# T3 sequence (P06493 whole entry): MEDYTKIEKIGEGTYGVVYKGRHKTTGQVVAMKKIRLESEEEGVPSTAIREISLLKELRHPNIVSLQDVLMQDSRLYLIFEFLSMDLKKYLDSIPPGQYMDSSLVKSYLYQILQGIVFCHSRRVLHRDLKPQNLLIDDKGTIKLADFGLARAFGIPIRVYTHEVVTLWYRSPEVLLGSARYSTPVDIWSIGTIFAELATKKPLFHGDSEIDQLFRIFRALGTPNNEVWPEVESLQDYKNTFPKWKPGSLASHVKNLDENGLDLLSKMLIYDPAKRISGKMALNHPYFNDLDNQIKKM
# T3 sequence (P14635 whole entry partner): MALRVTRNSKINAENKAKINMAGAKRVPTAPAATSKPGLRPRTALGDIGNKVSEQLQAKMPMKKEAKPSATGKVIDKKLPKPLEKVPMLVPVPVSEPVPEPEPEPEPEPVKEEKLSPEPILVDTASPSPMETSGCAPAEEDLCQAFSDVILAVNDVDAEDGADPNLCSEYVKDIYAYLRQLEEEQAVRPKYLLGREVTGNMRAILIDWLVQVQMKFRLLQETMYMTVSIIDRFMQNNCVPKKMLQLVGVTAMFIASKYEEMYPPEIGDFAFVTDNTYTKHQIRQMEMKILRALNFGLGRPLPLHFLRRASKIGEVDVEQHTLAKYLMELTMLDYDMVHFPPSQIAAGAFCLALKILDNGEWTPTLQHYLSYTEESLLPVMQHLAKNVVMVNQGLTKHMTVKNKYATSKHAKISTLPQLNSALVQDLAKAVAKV
# Procedure: as §1, §2, §3, §4, §5
# JAK2(h) = biological target: T4, JAK2(h) (Homo sapiens, UniProt O60674); assay: Eurofins KinaseProfiler kinase selectivity; format: biochemical; settings: compound at 1 μM; ATP 45 μM; read-out: Residual enzyme activity
# T4 construct: purchased Eurofins (KinaseProfiler platform)
# Procedure: as §1, §2, §3, §4, §5
# KDR(h) = biological target: T5, KDR(h) (Homo sapiens, UniProt P35968); assay: Eurofins KinaseProfiler kinase selectivity; format: biochemical; settings: compound at 1 μM; ATP 90 μM; read-out: Residual enzyme activity
# T5 construct: purchased Eurofins (KinaseProfiler platform)
# T5 sequence (P35968 20-1356): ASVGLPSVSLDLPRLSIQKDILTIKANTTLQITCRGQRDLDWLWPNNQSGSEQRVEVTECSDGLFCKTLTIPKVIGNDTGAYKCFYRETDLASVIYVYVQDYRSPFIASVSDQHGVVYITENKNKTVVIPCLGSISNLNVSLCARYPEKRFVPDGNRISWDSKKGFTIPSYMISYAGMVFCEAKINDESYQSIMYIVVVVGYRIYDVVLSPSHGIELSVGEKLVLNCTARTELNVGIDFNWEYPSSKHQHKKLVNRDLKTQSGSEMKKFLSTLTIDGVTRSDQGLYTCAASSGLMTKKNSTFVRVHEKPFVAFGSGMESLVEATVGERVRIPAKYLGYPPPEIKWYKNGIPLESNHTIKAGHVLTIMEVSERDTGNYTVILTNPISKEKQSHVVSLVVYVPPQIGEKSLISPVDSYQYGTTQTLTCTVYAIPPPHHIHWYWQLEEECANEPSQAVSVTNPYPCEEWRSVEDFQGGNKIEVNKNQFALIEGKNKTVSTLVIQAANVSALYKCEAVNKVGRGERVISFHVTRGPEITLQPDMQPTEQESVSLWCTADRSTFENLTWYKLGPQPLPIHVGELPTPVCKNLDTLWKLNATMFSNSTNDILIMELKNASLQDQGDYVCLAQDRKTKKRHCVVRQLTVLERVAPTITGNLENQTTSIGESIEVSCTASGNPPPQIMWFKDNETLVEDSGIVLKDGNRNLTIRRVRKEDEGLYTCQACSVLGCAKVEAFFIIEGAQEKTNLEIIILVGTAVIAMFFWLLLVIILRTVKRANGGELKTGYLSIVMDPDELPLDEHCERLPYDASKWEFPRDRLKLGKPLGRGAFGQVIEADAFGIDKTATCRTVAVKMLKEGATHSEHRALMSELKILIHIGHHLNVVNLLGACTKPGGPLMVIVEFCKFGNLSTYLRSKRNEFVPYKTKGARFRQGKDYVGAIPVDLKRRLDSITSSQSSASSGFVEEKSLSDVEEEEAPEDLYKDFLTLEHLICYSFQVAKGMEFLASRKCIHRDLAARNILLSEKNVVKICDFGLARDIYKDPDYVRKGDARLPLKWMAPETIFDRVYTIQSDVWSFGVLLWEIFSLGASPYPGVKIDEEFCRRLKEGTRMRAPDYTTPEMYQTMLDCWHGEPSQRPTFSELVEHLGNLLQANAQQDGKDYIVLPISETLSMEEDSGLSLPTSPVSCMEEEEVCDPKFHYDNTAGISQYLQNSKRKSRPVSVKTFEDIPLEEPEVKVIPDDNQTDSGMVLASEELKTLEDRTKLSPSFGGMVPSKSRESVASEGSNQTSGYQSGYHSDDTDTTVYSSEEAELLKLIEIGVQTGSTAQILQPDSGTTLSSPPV
# Procedure: as §1, §2, §3, §4, §5
# MST1(h) = biological target: T6, MST1(h) (Homo sapiens, UniProt Q13043); assay: Eurofins KinaseProfiler kinase selectivity; format: biochemical; settings: compound at 1 μM; ATP 90 μM; read-out: Residual enzyme activity
# T6 construct: purchased Eurofins (KinaseProfiler platform)
# Procedure: as §1, §2, §3, §4, §5
# Rsk1(h) = biological target: T7, Rsk1(h) (Homo sapiens, UniProt Q15418); assay: Eurofins KinaseProfiler kinase selectivity; format: biochemical; settings: compound at 1 μM; ATP 45 μM; read-out: Residual enzyme activity
# T7 construct: purchased Eurofins (KinaseProfiler platform)
# T7 sequence (Q15418 whole entry): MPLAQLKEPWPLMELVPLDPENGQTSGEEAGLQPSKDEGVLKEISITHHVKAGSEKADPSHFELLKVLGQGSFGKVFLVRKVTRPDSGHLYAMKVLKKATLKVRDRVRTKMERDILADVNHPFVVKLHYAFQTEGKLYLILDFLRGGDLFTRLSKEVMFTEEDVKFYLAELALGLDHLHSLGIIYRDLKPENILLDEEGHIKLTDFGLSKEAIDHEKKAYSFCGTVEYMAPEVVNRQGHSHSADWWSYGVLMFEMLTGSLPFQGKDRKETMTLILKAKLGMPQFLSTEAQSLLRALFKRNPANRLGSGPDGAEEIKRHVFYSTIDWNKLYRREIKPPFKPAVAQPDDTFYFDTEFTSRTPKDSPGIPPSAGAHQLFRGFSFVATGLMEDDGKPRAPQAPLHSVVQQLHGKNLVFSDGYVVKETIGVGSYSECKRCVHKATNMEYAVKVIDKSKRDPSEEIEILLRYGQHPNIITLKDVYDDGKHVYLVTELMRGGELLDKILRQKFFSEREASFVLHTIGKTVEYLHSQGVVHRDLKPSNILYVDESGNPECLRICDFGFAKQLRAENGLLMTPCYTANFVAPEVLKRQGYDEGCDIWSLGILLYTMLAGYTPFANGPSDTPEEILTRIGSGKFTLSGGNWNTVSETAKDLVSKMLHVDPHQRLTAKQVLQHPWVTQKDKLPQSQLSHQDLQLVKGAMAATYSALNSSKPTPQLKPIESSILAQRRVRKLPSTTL
# Procedure: as §1, §2, §3, §4, §5
# Flt3(h) = biological target: T8, Flt3(h) (Homo sapiens, UniProt P36888); assay: Eurofins KinaseProfiler kinase selectivity; format: biochemical; settings: compound at 1 μM; ATP 200 μM; read-out: Residual enzyme activity
# T8 construct: purchased Eurofins (KinaseProfiler platform)
# Procedure: as §1, §2, §3, §4, §5
# CDK2/cyclinA(h) = biological target: T9, CDK2/cyclinA(h) (Homo sapiens, UniProt P24941); assay: Eurofins KinaseProfiler kinase selectivity; format: biochemical; settings: compound at 1 μM; ATP 45 μM; read-out: Residual enzyme activity
# T9 construct: purchased Eurofins (KinaseProfiler platform)
# Procedure: as §1, §2, §3, §4, §5
# TNIK(h) = biological target: T10, TNIK(h) (Homo sapiens, UniProt Q9UKE5); assay: Eurofins KinaseProfiler kinase selectivity; format: biochemical; settings: compound at 1 μM; ATP 70 μM; read-out: Residual enzyme activity
# T10 construct: purchased Eurofins (KinaseProfiler platform)
# Procedure: as §1, §2, §3, §4, §5
# MLK1(h) = biological target: T11, MLK1(h) (Homo sapiens, UniProt P80192); assay: Eurofins KinaseProfiler kinase selectivity; format: biochemical; settings: compound at 1 μM; ATP 45 μM; read-out: Residual enzyme activity
# T11 construct: purchased Eurofins (KinaseProfiler platform)
# Procedure: as §1, §2, §3, §4, §5
# Fyn(h) = biological target: T12, Fyn(h) (Homo sapiens, UniProt P06241); assay: Eurofins KinaseProfiler kinase selectivity; format: biochemical; settings: compound at 1 μM; ATP 70 μM; read-out: Residual enzyme activity
# T12 construct: purchased Eurofins (KinaseProfiler platform)
# Procedure: as §1, §2, §3, §4, §5
# LOK(h) = biological target: T13, LOK(h) (Homo sapiens, UniProt O94804); assay: Eurofins KinaseProfiler kinase selectivity; format: biochemical; settings: compound at 1 μM; ATP 120 μM; read-out: Residual enzyme activity
# T13 construct: purchased Eurofins (KinaseProfiler platform)
# T13 sequence (O94804 whole entry): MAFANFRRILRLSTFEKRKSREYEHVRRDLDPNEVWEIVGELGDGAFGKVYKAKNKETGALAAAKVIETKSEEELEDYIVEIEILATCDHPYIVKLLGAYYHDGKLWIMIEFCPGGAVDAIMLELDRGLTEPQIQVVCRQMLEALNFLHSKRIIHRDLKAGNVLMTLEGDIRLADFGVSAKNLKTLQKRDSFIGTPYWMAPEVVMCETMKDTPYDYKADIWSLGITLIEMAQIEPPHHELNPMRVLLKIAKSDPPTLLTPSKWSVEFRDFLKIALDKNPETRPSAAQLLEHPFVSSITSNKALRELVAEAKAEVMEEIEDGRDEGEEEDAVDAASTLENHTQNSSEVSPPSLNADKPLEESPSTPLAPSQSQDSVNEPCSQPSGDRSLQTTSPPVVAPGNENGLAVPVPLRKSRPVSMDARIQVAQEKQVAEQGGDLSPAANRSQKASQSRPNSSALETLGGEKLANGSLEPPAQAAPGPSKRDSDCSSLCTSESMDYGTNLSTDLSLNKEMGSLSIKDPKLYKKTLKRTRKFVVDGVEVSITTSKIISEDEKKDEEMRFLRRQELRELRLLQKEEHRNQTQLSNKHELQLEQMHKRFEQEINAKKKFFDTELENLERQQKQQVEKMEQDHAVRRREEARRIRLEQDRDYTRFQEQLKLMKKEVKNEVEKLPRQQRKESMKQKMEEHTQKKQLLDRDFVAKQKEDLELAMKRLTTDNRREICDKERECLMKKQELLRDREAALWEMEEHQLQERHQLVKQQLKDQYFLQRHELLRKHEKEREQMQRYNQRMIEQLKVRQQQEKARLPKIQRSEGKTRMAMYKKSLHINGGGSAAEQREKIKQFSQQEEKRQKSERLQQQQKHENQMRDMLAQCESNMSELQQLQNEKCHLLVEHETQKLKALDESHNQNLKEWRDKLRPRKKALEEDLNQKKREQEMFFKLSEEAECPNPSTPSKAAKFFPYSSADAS
# Procedure: as §1, §2, §3, §4, §5
# [2] = tested on: human peripheral blood mononuclear cells; assay: Proliferation inhibition of peripheral blood mononuclear cells (flow cytometry); format: cell-based; settings: PBMC, PHA-M 5 μg/mL stimulation, 48 hours
# Procedure: Flow cytometry was used to detect cell proliferation of human peripheral blood mononuclear cells.
# • Cell complete medium: 445 mL of RPMI1640 cell culture+50 mL of fetal bovine serum+5 mL of double antibody • Buffer 1: 9.9 mL of phosphate buffer+0.1 mL of 10% bovine serum protein • Buffer 2: 10 mL of fetal bovine serum+490 mL of phosphate buffer 3.2 Cell Thawing • 3.2.1 20 mL of cell complete medium was added to a 50 mL of centrifuge tube and pre-heated in a 37° C. water bath for 5 minutes; • 3.2.2 the cell cryotubes were removed from the liquid nitrogen storage tank and placed on dry ice for 5-10 minutes to allow the liquid nitrogen to evaporate fully; • 3.2.3 the cell cryotubes were clamped with forceps and placed in the water bath, and shaken gently to thaw the frozen cells quickly; • 3.2.4 the thawed cells were transferred to the pre-heated cell complete medium with a pipette, centrifuged at 350 g for 5 min, then the supernatant was discarded, and the cells was resuspended by adding 10 mL of phosphate buffer; • 3.2.5 counting by cell counter, and cell viability and cell count were recorded. 3.3 Cell Labeling • 3.3.1 Cell proliferation labeling solution (CellTrace™ Violet, 1:1000 dilution) was prepared • 3.3.2 the above mixture was centrifuged at 350 g for 5 minutes, and the supernatant was discarded, then the cells (20×10^6/mL) were resuspended by adding Buffer 1, and the resuspended cells were gently blown by pipette, and an equal volume of cell proliferation labeling solution (prepared in 3.3.1) was added, and gently blown well by pipette; • 3.3.3 incubating in a 5% CO2, 37° C. cell incubator for 18 minutes; • 3.3.4 the 5-fold volume of cell complete medium was added and leaved at room temperature for 5 minutes to terminate the staining reaction; • 3.3.5 the above mixture was centrifuged at 350 g for 5 minutes, and the supernatant was discarded, then the cells were resuspended by adding 10 mL of cell complete medium, counted by cell counter, and cell viability and cell count were recorded; • 3.3.6 the above mixture was centrifuged at 350 g for 5 minutes, and the supernatant was discarded, then the corresponding volume of cell complete medium was added according to the cell counting results, and the density of the resuspended cells was 2×10^6/mL and was to be used. 3.4 Cell Proliferation Stimulation • 3.4.1 50 μL/well prepared cell suspension (1×10^5 cells/well), 50 μL of 4×PHA-M (the final concentration is 5 μg/mL), 50 μL of 4×test compound, 50 μL of cell complete medium were added to the wells of 96-well cell culture plate, and the corresponding control group was set up; (total volume of the reaction system is 200 μL) • 3.4.2 the cell culture plate was placed and incubated in a 5% CO2, 37° C. cell incubator for 48 hours. 3.5 Cell Proliferation Detection • 3.5.1 the above mixture was centrifuged at 350 g for 5 minutes and the supernatant was transferred to a new cell culture plate and stored at −80° C.; • 3.5.2 200 μL of Buffer 2 was add to the wells of the culture plate, and the above mixture was centrifuged at 350 g and the supernatant was discarded; • 3.5.3 cell dead or living staining solution (7-AAD, 1:100 dilution) was prepared with Buffer 2; • 3.5.4 100 μL/well of dead or living staining solution was added, and gently blown and mixed well by pipette, and stained at room temperature for 10 min; • 3.5.5 cell proliferation was detected by flow cytometry analyzer and analyzed by Flowjo software.
smiles,measurement,setting,value
CCn1c(CO)nn(-c2cc(O[C@@H](C)C(F)(F)F)c(/C(F)=C/c3ncccc3Cl)cc2F)c1=O [Compound 5],EC50,[1],70 nM
same,remaining activity at 1 µM,CDK9/cyclin T1(h),95%
same,remaining activity at 1 µM,Abl(h),88%
same,remaining activity at 1 µM,CDK1/cyclinB(h),91%
same,remaining activity at 1 µM,JAK2(h),81%
same,remaining activity at 1 µM,KDR(h),90%
same,remaining activity at 1 µM,MST1(h),96%
same,remaining activity at 1 µM,Rsk1(h),88%
same,remaining activity at 1 µM,Flt3(h),84%
same,remaining activity at 1 µM,CDK2/cyclinA(h),72%
same,remaining activity at 1 µM,TNIK(h),84%
same,remaining activity at 1 µM,MLK1(h),111%
same,remaining activity at 1 µM,Fyn(h),121%
same,remaining activity at 1 µM,LOK(h),108%
same,IC50,[2],0.8 nM
